Data: the supplement of paper PMC10307832

What was measured:
Assay in all cases: relative viability (nuclei count vs DMSO), 5 days (fraction); higher = more cells survive
[1] = compound: CC(C)CCN1c2nc(Nc3cc(F)c(O)c(F)c3)ncc2N(C)C(=O)C1C [BI-D1870] + COc1cccc2cc(-c3nc([C@H]4CC[C@H](C(=O)O)CC4)n4ncnc(N)c34)[nH]c12 [OSI-027] (partner 0.5 µM)
How it was run: (§1)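 For relative viability, nuclei counts in treated wells were divided by those in vehicle wells. Lung cancer cell lines had been pin-tool dosed in 1536-well plates the day after seeding and cultured for 5 days, then fixed and stained in one step (final 0.05% Triton X-100, 1% formaldehyde, 1 ug/ml Hoechst) and imaged at 4×. Doses were one drug alone or a fixed anchor-drug dose plus five library-drug doses (not always all listed) in √10 steps, and values are duplicate-plate medians.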

[2] = compound: CC(C)CCN1c2nc(Nc3cc(F)c(O)c(F)c3)ncc2N(C)C(=O)C1C [BI-D1870] + Cc1cc(Nc2cc(N3CCN(C)CC3)nc(Sc3ccc(NC(=O)C4CC4)cc3)n2)n[nH]1 [Tozasertib] (partner 0.1 µM)
How it was run: as §1

[3] = compound: CC(C)CCN1c2nc(Nc3cc(F)c(O)c(F)c3)ncc2N(C)C(=O)C1C [BI-D1870] + NC(=O)Nc1cc(-c2cccc(F)c2)sc1C(=O)N[C@H]1CCCNC1 [AZD7762] (partner 0.2 µM)
How it was run: as §1

[4] = compound: O=c1ncccn1[C@@H]1O[C@H](CO)[C@@H](O)[C@H]1O [Zebularine] + Cc1nc(NC(=O)N2CCC[C@H]2C(N)=O)sc1-c1ccnc(C(C)(C)C(F)(F)F)c1 [Alpelisib] (partner 2 µM)
How it was run: as §1

Row | Cell Line | relative viability ([1]; first compound 0.04 µM) | relative viability ([1]; first compound 0.1265 µM) | relative viability ([1]; first compound 0.4 µM) | relative viability ([1]; first compound 1.265 µM) | relative viability ([1]; first compound 4 µM) | relative viability ([2]; first compound 0.04 µM) | relative viability ([2]; first compound 0.1265 µM) | relative viability ([2]; first compound 0.4 µM) | relative viability ([2]; first compound 1.265 µM) | relative viability ([2]; first compound 4 µM) | relative viability ([3]; first compound 0.04 µM) | relative viability ([3]; first compound 0.1265 µM) | relative viability ([3]; first compound 0.4 µM) | relative viability ([3]; first compound 1.265 µM) | relative viability ([3]; first compound 4 µM) | relative viability ([4]; first compound 1 µM) | relative viability ([4]; first compound 3.162 µM) | relative viability ([4]; first compound 10 µM) | relative viability ([4]; first compound 31.62 µM) | relative viability ([4]; first compound 100 µM)
1 | HCC-15 | 0.732 | 0.611 | 0.638 | 0.765 | 0.396 | 0.523 | 0.347 | 0.33 | 0.333 | 0.185 | 0.725 | 1.18 | 1.04 | 1.17 | 1.08 | 1.01 | 0.887 | 0.596 | 0.654 | 0.248
2 | HCC-44 | 0.751 | 0.5 | 0.642 | 0.464 | 0.383 | 1.29 | 0.89 | 0.855 | 0.602 | 0.404 | 1.02 | 0.988 | 1 | 1.04 | 1.04 | 0.818 | 0.938 | 0.463 | 0.639 | 0.265
3 | HCC-78 | 0.629 | 0.346 | 0.401 | 0.427 | 0.309 | 0.455 | 0.355 | 0.392 | 0.39 | 0.293 | 0.677 | 0.593 | 0.528 | 0.815 | 0.598 | 0.358 | 0.155 | 0.104 | 0.326 | 0.292
4 | NCI-H727 | 0.559 | 0.518 | 0.646 | 1.01 | 0.517 | 0.683 | 0.699 | 0.561 | 0.773 | 0.557 | 0.575 | 0.793 | 0.569 | 0.838 | 0.515 | – | 0.531 | 0.564 | 0.665 | 0.485
5 | NCI-H2087 | 0.733 | 0.516 | 0.58 | 0.638 | 0.392 | 0.217 | 0.212 | 0.203 | 0.215 | 0.142 | 1.41 | 1.4 | 1.37 | 1.45 | 1.41 | 1.31 | 1.01 | 0.684 | 0.778 | 0.309
6 | BEN | 0.296 | 0.289 | 0.283 | 0.311 | 0.283 | 0.557 | 0.618 | 0.438 | 0.548 | 0.605 | 0.699 | 0.574 | 0.633 | 0.961 | 0.67 | 0.991 | 0.897 | 0.454 | 0.372 | 0.377
7 | LCLC-103H | 0.387 | 0.417 | 0.447 | 0.418 | 0.366 | 0.44 | 0.285 | 0.465 | 0.565 | 0.49 | 0.768 | 0.655 | 0.804 | 0.871 | 0.741 | 1.08 | 0.945 | 0.95 | 0.904 | 0.761
8 | EKVX | 0.68 | 0.608 | 0.64 | 0.776 | 0.641 | 0.433 | 0.379 | 0.378 | 0.287 | 0.206 | 0.632 | 0.72 | 0.61 | 0.742 | 0.701 | 0.958 | 0.867 | – | 0.963 | 0.802
9 | LXF-289 | 0.796 | 0.74 | 0.746 | 0.807 | 0.776 | 0.173 | 0.211 | 0.191 | 0.183 | 0.195 | 1.08 | 1.04 | 1.07 | 1.06 | 0.943 | 1.08 | 1.06 | 0.827 | 0.811 | 0.329
10 | ABC-1 | 0.669 | 0.406 | 0.416 | 0.501 | 0.319 | 0.171 | 0.155 | 0.15 | 0.197 | 0.197 | 0.805 | 0.82 | 0.796 | 0.791 | 0.895 | 1.43 | 1.01 | 0.84 | 0.891 | 0.536
11 | NCI-H650 | 0.538 | 0.427 | 0.509 | 0.471 | 0.446 | 0.752 | 0.677 | 0.689 | 0.588 | 0.265 | 1.14 | 0.83 | 0.897 | 1.17 | 0.778 | 1.04 | 1.2 | 0.894 | 0.462 | 0.319
12 | NCI-H2085 | 0.745 | 0.6 | 0.674 | 0.602 | 0.337 | 0.816 | 0.735 | 0.544 | 0.547 | 0.401 | 1.06 | 0.972 | 0.927 | 0.97 | 0.771 | 1.04 | 0.977 | 0.802 | 0.96 | 0.535
13 | NCI-H1793 | 0.293 | 0.216 | 0.22 | 0.266 | 0.224 | 0.376 | 0.246 | 0.207 | 0.275 | 0.226 | 0.74 | 0.411 | 0.296 | 0.417 | 0.504 | 0.812 | 0.7 | 0.391 | 0.357 | 0.193
14 | LC-2-ad | 0.93 | 0.861 | 0.824 | 0.867 | 0.802 | 0.561 | 0.479 | 0.443 | 0.367 | 0.373 | 0.849 | 0.805 | 0.831 | 0.886 | 0.675 | 1.03 | 0.865 | 0.539 | 0.491 | 0.135
15 | NCI-H1355 | 0.464 | 0.36 | 0.361 | 0.425 | 0.308 | 0.598 | 0.528 | 0.498 | 0.374 | 0.384 | 0.954 | 0.732 | 0.7 | 0.849 | 0.551 | 0.856 | 0.798 | 0.728 | 0.635 | 0.385
16 | H3255 | 0.627 | 0.51 | 0.548 | 0.682 | 0.539 | 0.641 | 0.57 | 0.68 | 0.604 | 0.739 | 0.956 | 0.965 | 0.851 | 1.07 | 0.892 | 0.664 | 0.734 | 0.422 | 0.716 | 0.673
